Measured values: US20040024027A1 (priority 2000, published 2004)

Assay: Exposure to 75% Relative Humidity atmosphere (re-weighing and infrared spectrum)
Format: physicochemical
Settings: sealed container, 75% Relative Humidity (saturated sodium chloride solution), 21° C., 96 hours
Description: The sample was re-weighed and the infrared spectrum of the product recorded.

Q: With `CN(CCOc1ccc(CC2SC(=O)NC2=O)cc1)c1ccccn1.I` (centres unmarked) [Hydriodide, 5-[4-[2-(N-Methyl-N-(2-pyridyl)amino)ethoxy]benzyl]thiazolidine-2,4-dione Hydriodide] as the compound, how does the “Infrared spectrum after humidity exposure” value read?
A: no change

Q: What about the “Sample weight after humidity exposure” value of the same compound?
A: no weight gain
